Like-named read-outs stand apart in the source and are kept apart here.

As a reminder, the EC50 is the concentration needed to bring the measured effect to its halfway point. Usually Emax stands for the maximal effect, on the per cent scale that the assay sets.

One assay addresses μ-opioid receptor (Homo sapiens, UniProt P35372). In words: μ-opioid receptor [35S]GTPγS functional assay, U-2 OS cells. It is filed as biochemical. Also noted: expressed in transfected cells; host or cells: U-2 OS. The note with it: for Emax: relative to DAMGO.
For a further assay, the target named is κ opioid receptor (Homo sapiens, UniProt P41145). In words: κ-opioid receptor [35S]GTPγS functional assay, U-2 OS cells. It counts as biochemical. Also noted: expressed in transfected cells; host or cells: U-2 OS (in-house membranes). As to conditions: for Emax: read-out: GTPγS κ Emax. On the technique in general: GTPγS resists hydrolysis and so accumulates on activated G proteins.

Setting [1] is: U-2 OS cells, read-out: GTPγS μ EC50.
The mark [2] stands for this setting: U-2 OS cells, read-out: GTPγS μ Emax.
The mark [3] stands for this setting: U-2 OS cells, read-out: GTPγS κ EC50.
The mark [4] stands for this setting: U-2 OS cells, relative to U69,593.
[5] abbreviates: read-out: GTPγS μ Emax, U-2 OS cells.

Chain of μ-opioid receptor (P35372 whole entry, species assumed): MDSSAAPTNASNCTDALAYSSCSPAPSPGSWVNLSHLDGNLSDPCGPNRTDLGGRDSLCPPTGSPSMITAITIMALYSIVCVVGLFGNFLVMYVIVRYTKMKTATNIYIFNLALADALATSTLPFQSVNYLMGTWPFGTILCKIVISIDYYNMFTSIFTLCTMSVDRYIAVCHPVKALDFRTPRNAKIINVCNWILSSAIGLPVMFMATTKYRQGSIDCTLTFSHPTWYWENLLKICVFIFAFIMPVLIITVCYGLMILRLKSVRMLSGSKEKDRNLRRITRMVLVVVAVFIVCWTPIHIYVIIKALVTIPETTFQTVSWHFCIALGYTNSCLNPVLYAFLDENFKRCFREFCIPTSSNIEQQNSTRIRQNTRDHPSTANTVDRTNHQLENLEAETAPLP
Chain of κ opioid receptor (P41145 whole entry): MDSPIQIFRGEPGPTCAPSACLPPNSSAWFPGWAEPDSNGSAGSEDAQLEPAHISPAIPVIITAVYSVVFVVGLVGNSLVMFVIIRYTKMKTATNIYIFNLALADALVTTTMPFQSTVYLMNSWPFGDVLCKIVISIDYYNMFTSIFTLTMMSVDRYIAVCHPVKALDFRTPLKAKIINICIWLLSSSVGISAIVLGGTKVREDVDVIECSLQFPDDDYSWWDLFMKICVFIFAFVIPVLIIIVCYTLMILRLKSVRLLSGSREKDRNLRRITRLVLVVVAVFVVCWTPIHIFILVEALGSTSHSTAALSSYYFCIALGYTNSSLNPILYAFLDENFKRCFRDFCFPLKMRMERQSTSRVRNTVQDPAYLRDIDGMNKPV

Turning to `CN1CC[C@@]2(C)c3cc(O)ccc3C[C@@H]1[C@H]2NCCCNC(=O)OC(C)(C)C` [Compound 111, tert-butyl (3-(((2R,6S,11S)-8-hydroxy-3,6-dimethyl-1,2,3,4,5,6-hexahydro-2,6-methanobenzo[d]azocin-11-yl)amino)propyl)carbamate], the EC50 at μ-opioid receptor (setting [1]) stood at 0.00223 ± 0.00012 µM; on κ opioid receptor (setting [3]), 42.6 ± 7.64 nM. Moreover, the Emax turned out to be 64 ± 4% on μ-opioid receptor (setting [2]) and 22.7 ± 2.33% at κ opioid receptor (setting [4]).

Turning to `CN1CC[C@@]2(C)c3cc(O)ccc3C[C@@H]1[C@H]2NCCNC(=O)OC(C)(C)C` [Compound 112, tert-butyl (2-(((2R,6S,11S)-8-hydroxy-3,6-dimethyl-1,2,3,4,5,6-hexahydro-2,6-methanobenzo[d]azocin-11-yl)amino)ethyl)carbamate], the EC50 on μ-opioid receptor (setting [1]) came to 0.00756 ± 0.00045 µM; at κ opioid receptor (setting [3]), 23.4 ± 7.81 nM. Also, the maximal effect (Emax) at μ-opioid receptor (setting [2]) worked out at 83.7 ± 1.45%; on κ opioid receptor (setting [4]), 26.3 ± 0.88%.

In the case of `C[C@]12CCN(CC3CC3)[C@H](Cc3ccc(O)cc31)[C@H]2NC(=O)c1ccsc1` [Compound 113, N-((2R,6S,11S)-3-(cyclopropylmethyl)-8-hydroxy-6-methyl-1,2,3,4,5,6-hexahydro-2,6-methanobenzo[d]azocin-11-yl)thiophene-3-carboxamide], the EC50 is 0.00045 ± 3.6e-05 µM on μ-opioid receptor (setting [1]) and 0.052 ± 0.013 nM on κ opioid receptor (setting [3]). The Emax at μ-opioid receptor (setting [2]) was 68.7 ± 3.71%; at κ opioid receptor (setting [4]), 99.2 ± 1.65%.

With `CN(C(=O)c1ccsc1)[C@@H]1[C@H]2Cc3ccc(O)cc3[C@]1(C)CCN2CC1CC1` [Compound 114, N-((2R,6S,11S)-3-(cyclopropylmethyl)-8-hydroxy-6-methyl-1,2,3,4,5,6-hexahydro-2,6-methanobenzo[d]azocin-11-yl)-N-methylthiophene-3-carboxamide], the EC50 on μ-opioid receptor (setting [1]) came to 0.152 ± 0.0168 µM; at κ opioid receptor (setting [3]), 18.9 ± 2.01 nM. Moreover, the figures for the maximal effect (Emax) at μ-opioid receptor (setting [2]) and at κ opioid receptor (setting [4]) were 20.7 ± 0.67% and 107 ± 4.36%, respectively.

Consider `CN(C(=O)c1ccccc1)[C@@H]1[C@H]2Cc3ccc(O)cc3[C@]1(C)CCN2CC1CC1` [Compound 115, N-((2R,6S,11S)-3-(cyclopropylmethyl)-8-hydroxy-6-methyl-1,2,3,4,5,6-hexahydro-2,6-methanobenzo[d]azocin-11-yl)-N-methylbenzamide], for which the EC50 at μ-opioid receptor (setting [1]) amounted to 0.159 ± 0.0154 µM; at κ opioid receptor (setting [3]) it was 53.4 ± 7.28 nM. The Emax at μ-opioid receptor (setting [2]) was found to be 37.7 ± 1.67%; on κ opioid receptor (setting [4]) it was 76 ± 6.66%.

`CC(C)CCC(=O)N(C)[C@H]1[C@H]2Cc3ccc(O)cc3[C@]1(C)CCN2C` [Compound 116, N-((2R,6S,11R)-8-hydroxy-3,6-dimethyl-1,2,3,4,5,6-hexahydro-2,6-methanobenzo[d]azocin-11-yl)-N,4-dimethylpentanamide]: the EC50 at μ-opioid receptor (setting [1]) was 0.00312 ± 0.00015 µM; at κ opioid receptor (setting [3]) it was 69.4 ± 5.37 nM. The Emax at μ-opioid receptor (setting [2]) worked out at 104 ± 2.96%; at κ opioid receptor (setting [4]), 56.3 ± 3.93%.

On to `CN1CC[C@@]2(C)c3cc(O)ccc3C[C@@H]1[C@H]2N(C)C(=O)Cc1ccccc1` [Compound 117, N-((2R,6S,11S)-8-hydroxy-3,6-dimethyl-1,2,3,4,5,6-hexahydro-2,6-methanobenzo[d]azocin-11-yl)-N-methyl-2-phenylacetamide], for which the figures for the concentration for a half-maximal effect (EC50) on μ-opioid receptor (setting [1]) and at κ opioid receptor (setting [3]) were 0.822 ± 0.0939 µM and 3390 ± 439 nM, respectively. The Emax at μ-opioid receptor (setting [2]) was found to be 93.7 ± 5.36%; at κ opioid receptor (setting [4]), 79.7 ± 5.46%.

Take `CN1CC[C@@]2(C)c3cc(O)ccc3C[C@@H]1[C@@H]2N(C)C(=O)Cc1ccccc1` [Compound 118, N-((2R,6S,11R)-8-hydroxy-3,6-dimethyl-1,2,3,4,5,6-hexahydro-2,6-methanobenzo[d]azocin-11-yl)-N-methyl-2-phenylacetamide]: the EC50 on μ-opioid receptor (setting [1]) was 0.00132 ± 4e-05 µM; on κ opioid receptor (setting [3]), 90.8 ± 7.63 nM. Also, the Emax came out at 101 ± 2.52% on μ-opioid receptor (setting [2]) and 75.2 ± 4.33% on κ opioid receptor (setting [4]).

As for `CN1CC[C@@]2(C)c3cc(O)ccc3C[C@@H]1[C@@H]2N(C)C(=O)c1ccccc1` [Compound 119, N-((2R,6S,11R)-8-hydroxy-3,6-dimethyl-1,2,3,4,5,6-hexahydro-2,6-methanobenzo[d]azocin-11-yl)-N-methylbenzamide], the EC50 came to 0.0322 ± 0.00326 µM on μ-opioid receptor (setting [1]) and 383 ± 21.9 nM at κ opioid receptor (setting [3]). The maximum response (Emax) turned out to be 100 ± 2.73% at μ-opioid receptor (setting [2]) and 96.7 ± 5.36% at κ opioid receptor (setting [4]).

`CN1CC[C@@]2(C)c3cc(O)ccc3C[C@@H]1[C@H]2N(C)C(=O)C1CCCCC1` [Compound 120, N-((2R,6S,11S)-8-hydroxy-3,6-dimethyl-1,2,3,4,5,6-hexahydro-2,6-methanobenzo[d]azocin-11-yl)-N-methylcyclohexanecarboxamide]: the EC50 on μ-opioid receptor (setting [1]) turned out to be 2.94 ± 0.481 µM; at κ opioid receptor (setting [3]), 2860 ± 231 nM. Besides, the maximal effect (Emax) on μ-opioid receptor (setting [2]) was 76.3 ± 3.48%; on κ opioid receptor (setting [4]), 62.3 ± 4.91%.

In the case of `CN1CC[C@@]2(C)c3cc(O)ccc3C[C@@H]1[C@@H]2N(C)C(=O)C1CCCCC1` [Compound 121, N-((2R,6S,11R)-8-hydroxy-3,6-dimethyl-1,2,3,4,5,6-hexahydro-2,6-methanobenzo[d]azocin-11-yl)-N-methylcyclohexanecarboxamide], the 50% effective concentration (EC50) on μ-opioid receptor (setting [1]) was found to be 0.126 ± 0.0154 µM; at κ opioid receptor (setting [3]), 604 ± 68.1 nM. Moreover, the figures for the maximal response (Emax) on μ-opioid receptor (setting [2]) and at κ opioid receptor (setting [4]) were 91.7 ± 4.18% and 18.3 ± 0.88%, respectively.

`CN1CC[C@@]2(C)c3cc(O)ccc3C[C@@H]1[C@@H]2N(C)C(=O)/C=C/c1cccnc1` [Compound 122, (E)-N-((2R,6S,11R)-8-hydroxy-3,6-dimethyl-1,2,3,4,5,6-hexahydro-2,6-methanobenzo[d]azocin-11-yl)-N-methyl-3-(pyridin-3-yl)acrylamide]: the EC50 is 0.00036 ± 1e-05 µM on μ-opioid receptor (setting [1]) and 15.2 ± 2.63 nM on κ opioid receptor (setting [3]). Besides, the Emax at μ-opioid receptor (setting [2]) turned out to be 102 ± 1.2%; at κ opioid receptor (setting [4]) it was 94.5 ± 0.65%.

For the molecule `CN1CC[C@@]2(C)c3cc(O)ccc3C[C@@H]1[C@@H]2N(C)C(=O)Cc1ccsc1` [Compound 123, N-((2R,6S,11R)-8-hydroxy-3,6-dimethyl-1,2,3,4,5,6-hexahydro-2,6-methanobenzo[d]azocin-11-yl)-N-methyl-2-(thiophen-3-yl)acetamide], the Emax at μ-opioid receptor (setting [5]) came to 104 ± 3.06%. Also, at κ opioid receptor, the midpoint of the response, the EC50, lay at 113 ± 5.8 nM and the Emax was found to be 74 ± 3.06%.

On to `CN1CC[C@@]2(C)c3cc(O)ccc3C[C@@H]1[C@@H]2N(C)C(=O)c1ccsc1` [Compound 124, N-((2R,6S,11R)-8-hydroxy-3,6-dimethyl-1,2,3,4,5,6-hexahydro-2,6-methanobenzo[d]azocin-11-yl)-N-methylthiophene-3-carboxamide], for which the EC50 was 0.0141 ± 0.00048 µM on μ-opioid receptor (setting [1]) and 680 ± 67.7 nM at κ opioid receptor (setting [3]). For the same molecule, the Emax on μ-opioid receptor (setting [2]) stood at 98 ± 3.06%; at κ opioid receptor (setting [4]), 77.3 ± 4.63%.

For `CN1CC[C@@]2(C)c3cc(O)ccc3C[C@@H]1[C@H]2N(C)C(=O)c1ccsc1` [Compound 125, N-((2R,6S,11S)-8-hydroxy-3,6-dimethyl-1,2,3,4,5,6-hexahydro-2,6-methanobenzo[d]azocin-11-yl)-N-methylthiophene-3-carboxamide], the EC50 is 2.62 ± 0.396 µM on μ-opioid receptor (setting [1]) and 443 ± 73.2 nM on κ opioid receptor (setting [3]). The Emax at μ-opioid receptor (setting [2]) amounted to 70.7 ± 2.33%; at κ opioid receptor (setting [4]), 102 ± 5.69%.

For the molecule `CN1CC[C@@]2(C)c3cc(O)ccc3C[C@@H]1[C@H]2N(C)C(=O)c1ccc(C(F)(F)F)cn1` [Compound 126, N-((2R,6S,11S)-8-hydroxy-3,6-dimethyl-1,2,3,4,5,6-hexahydro-2,6-methanobenzo[d]azocin-11-yl)-N-methyl-5-(trifluoromethyl)picolinamide], the figures for the EC50 on μ-opioid receptor (setting [1]) and at κ opioid receptor (setting [3]) were 0.147 ± 0.00947 µM and 1470 ± 91.3 nM, respectively. In addition, the maximal response (Emax) on μ-opioid receptor (setting [2]) was 103 ± 2.4%; at κ opioid receptor (setting [4]), 63.7 ± 3.93%.

Turning to `C[C@]12CCN(CC3CC3)[C@H](Cc3ccc(O)cc31)[C@@H]2NC(=O)c1ccsc1` [Compound 127, N-((2R,6S,11R)-3-(cyclopropylmethyl)-8-hydroxy-6-methyl-1,2,3,4,5,6-hexahydro-2,6-methanobenzo[d]azocin-11-yl)thiophene-3-carboxamide], the EC50 is greater than 20 µM at μ-opioid receptor (GTPγS μ EC50, U-2 OS cells, bound in μM) and 947 ± 68 nM on κ opioid receptor. Besides, the figures for the Emax on μ-opioid receptor (setting [5]) and on κ opioid receptor were 3.67 ± 1.2% and 93 ± 3.51%, respectively.

With `C[C@]12CCN(CC3CC3)[C@H](Cc3ccc(O)cc31)[C@@H]2NS(=O)(=O)c1cccc(C(F)(F)F)c1` [Compound 129, N-((2R,6S,11R)-3-(cyclopropylmethyl)-8-hydroxy-6-methyl-1,2,3,4,5,6-hexahydro-2,6-methanobenzo[d]azocin-11-yl)-3-(trifluoromethyl)benzenesulfonamide], the half-maximal effective concentration (EC50) at μ-opioid receptor (setting [1]) was found to be 0.00914 ± 0.00119 µM; on κ opioid receptor (setting [3]) it was 0.78 ± 0.07 nM. Besides, the maximal response (Emax) is 20 ± 1.15% at μ-opioid receptor (setting [2]) and 97.3 ± 1.86% on κ opioid receptor (setting [4]).

As for `CN([C@@H]1[C@H]2Cc3ccc(O)cc3[C@]1(C)CCN2CC1CC1)S(=O)(=O)c1cccc(C(F)(F)F)c1` [Compound 130, N-((2R,6S,11S)-3-(cyclopropylmethyl)-8-hydroxy-6-methyl-1,2,3,4,5,6-hexahydro-2,6-methanobenzo[d]azocin-11-yl)-N-methyl-3-(trifluoromethyl)benzenesulfonamide], the EC50 on μ-opioid receptor (setting [1]) was found to be 0.373 ± 0.105 µM; on κ opioid receptor (setting [3]), 22.8 ± 3.38 nM. Moreover, the maximal effect (Emax) on μ-opioid receptor (setting [2]) amounted to 29 ± 2%; on κ opioid receptor (setting [4]), 71 ± 3.11%.

In the case of `CN1CC[C@@]2(C)c3cc(O)ccc3C[C@@H]1[C@H]2N(C)S(=O)(=O)c1cccc(C(F)(F)F)c1` [Compound 131, N-((2R,6S,11S)-8-hydroxy-3,6-dimethyl-1,2,3,4,5,6-hexahydro-2,6-methanobenzo[d]azocin-11-yl)-N-methyl-3-(trifluoromethyl)benzenesulfonamide], the EC50 was 0.29 ± 0.00532 µM at μ-opioid receptor (setting [1]) and greater than 20000 nM on κ opioid receptor (U-2 OS cells, bound in μM, read-out: GTPγS κ EC50). Also, the maximum response (Emax) at μ-opioid receptor (setting [2]) was found to be 69 ± 1%; at κ opioid receptor (setting [4]), 0%.

The record behind these values is patent US10138207B2, “Benzomorphan analogs and the use thereof” (priority 2012, dated 2018).
